Data: patent publication US20130129681A1, “METHODS FOR DIAGNOSING SOLID TUMORS” (NODALITY, INC., priority 2011, published 2013)
“Also recorded” adds a separate entry of the source.

Columns and labels:
[1] = test system: p-AKT and p-ERK in epithelial cells of pleural effusion; experiment: SCNP of pleural effusion, patient MCSF-04 (non-small cell lung cancer): p-AKT and p-ERK; assay type: cell-based, human
Protocol: A procedure similar to that shown for Example 1 was performed. A pleural effusion was obtained from a patient (MCSF-04) with a diagnosis of non-small cell lung cancer with a white cell count of 21 million.
(§1) Purpose: (1) Evaluate ability to detect epithelial cells in the pleural effusion sample. (2) Measure DNA content to evaluate whether detected cells are possibly originating from the tumor (aneuploid). (3) measure basal level p-AKT and p-ERK signaling in epithelial cells. (4) Measure evoked signaling after EGF stimulation in the same cell populations. (5) Measure signaling inhibition when the EGF is added after incubation with a PI3K inhibitor (GDC-0941). (6) Culture cells in the presence and absence of EGF to observe possible growth promoting effects and to potentially characterize the signaling of cells that expand.
Gating Scheme: The epithelial phenotype is based on the cells being positive for EpCAM and Cytokeratin stains, while expressing low levels of CD45.
SCNP contour plots show signaling in the epithelial cell compartment only. […] EGF stimulation (5 min., 37° C.) activates the PI3K and Ras/MEK pathways which are measured by p-AKT and p-ERK respectively. Attenuation of the EGF→p-AKT induced signaling in the presence of GDC-0941.

[2] = test system: EGF signaling in epithelial cells of ascites or pleural effusion samples; experiment: Summary of SCNP analysis of ascites or pleural effusion samples; assay type: cell-based, human
Description: This analysis identified epithelial cells with inducible EGF signaling in ⅘ ascites or pleural effusion samples. In each of the 4 positive cases, induced signaling was inhibited by the PI3K inhibitor, GDC-0941.

[3] = test system: p-AKT and p-ERK in epithelial cells of ascites fluid; experiment: SCNP of ascites fluid, patient MCSF-02 (biliary cancer): p-AKT and p-ERK; assay type: cell-based, human
Protocol: A procedure similar to that shown for Example 5 was performed. Ascites fluid was obtained from a patient (MCSF-02) with a diagnosis of biliary cancer with a white cell count of 4.3 million. This example has the same purpose as Example 5 as applied to ascites fluid.
Gating Scheme: The epithelial phenotype is based on the cells being positive for EpCAM and cytokeratin, while expressing low levels of CD45. Positive staining for cleaved PARP (c-PARP) indicates apoptosis. DNA index: The DNA index of the epithelial cells is based on the DNA content of the cells in the epithelial gate divided by the DNA content of the lymphocytes.
The biliary specimen contained 0.17% epithelial cells that were mostly non-apoptotic. This small percentage equates to ˜10 cells/condition. From this small population EGF induced p-AKT signaling was observed. A 9-fold increase in p-AKT levels were observed after […]. EGF stimulation. Induced signaling was attenuated with a 1 hour pre-incubation with 200 nM GDC-0941 (“GDC”). […] This is in contrast to the control cell line.

[4] = test system: p-AKT and p-ERK in epithelial cells of pleural effusion; experiment: SCNP of pleural effusion, patient MCSF-015 (non-small cell lung cancer): p-AKT and p-ERK; assay type: cell-based, human
Protocol: A procedure similar to that shown for Example 5 was performed. A pleural effusion was obtained from a patient (MCSF-015) with a diagnosis of non-small cell lung cancer with a white cell count of 150 million.
The HT-1376 epithelial bladder cancer cell line served as a positive control for EGF induced signaling. The control cell line was processed in parallel with the patient sample.
(§2) SCNP contour plots identify p-AKT and p-ERK signaling in the epithelial cell compartment only. […] EGF stimulation (5 min., 37° C.) activates the PI3K and Ras/MEK pathways which are measured by p-Akt and p-ERK respectively. […] Median fluorescent values of p-AKT and p-ERK under each treatment condition.

[5] = test system: p-AKT and p-ERK (PI3K and MAP Kinase pathways) in epithelial cells of bladder washes; experiment: SCNP of bladder wash samples: p-AKT and p-ERK at baseline and after EGF +/- GDC-0941; assay type: cell-based, human
Protocol: Bladder washes from non-cancer (NC) patients (pts) (n=8) and confirmed/suspected bladder cancer (BC) pts (n=20) were collected using standard medical practice and shipped overnight on ice for processing within 24 hours. Antibodies against CD45, Cytokeratin (CK), and EpCAM were used to differentiate epithelial cells from leukocytes, while measurements of DNA aneuploidy (DAPI stain) allowed for distinction between tumor and normal epithelial cells. Signaling activity in the PI3K and MAP Kinase pathways was assessed by measuring intracellular levels of p-AKT and p-ERK both at baseline and in response to pathway modulation. A process similar to that shown in Example 1 was used.
(§3) Upon delivery, cells were pelleted, counted, rested for 1 hr at 37° C., followed by a 5 minute stimulation with EGF or vehicle+/−GDC-0941 200 nM added 1 hr prior to EGF addition to inhibit PI3K signaling After cell fixation and permeabilization, samples were stained with fluorophore-conjugated antibodies/DAPI cocktail, and the data acquired using multi-parametric flow cytometry. The epithelial bladder carcinoma cell line HT-1376 was used as a control for the epithelial phenotype and EGF signaling. A DNA index was determined using the lymphoid population in the pt samples as a diploid G0/G1 reference.

[6] = test system: p-AKT and p-ERK in epithelial cells of pleural effusion; experiment: SCNP of pleural effusion, patient MCSF-06 (non-small cell lung cancer): p-Akt and p-ERK; assay type: cell-based, human
Protocol: A procedure similar to that shown for Example 5 was performed. A pleural effusion was obtained from a patient (MCSF-06) with a diagnosis of non-small cell lung cancer with a white cell count of 6.8 million. This example has the same Purpose as Example 5 as applied to lung cancer. The HT-1376 epithelial bladder cancer cell line served as a positive control for EGF induced signaling.
as §2, with “p-Akt” for “p-AKT”, “condition (see FIG. 5). The control cell line was processed in parallel with the patient sample.” for “condition.”

MDS patients = conditions: cited from earlier work
HT-1376 cells = experiment: HT-1376 bladder cancer cells spiked into whole blood, EGF-induced pAKT and pERK; assay type: cell-based; conditions: HT-1376 in whole blood; 200 ng/mL EGF for 5 minutes at 37° C.
Protocol: A procedure similar to that shown for Example 1 was performed.
Two aliquots of 1 million cells from a bladder cancer cell line, HT-1376, were spiked into 4 mls of whole blood in an effort to determine a lower limit of detection for bladder cancer cells in blood. The epithelial cell line, HT-1376 (ATCC #CRL-1472), which has high (positive) levels of cytokeratin, low (positive) levels for EpCAM, and negative for CD45. One aliquot was preincubated with PI3K inhibitor GDC-0941 at 10 uM and another was modulated with 200 ng/mL EGF for 5 minutes at 37° C. Another aliquot of whole blood contained no HT-1376 cells or other reagents. BD phosflow fix/lyse reagent was used followed by methanol. EGF was used as a modulator to induce pAKT and pERK responses, 9.4 and 3.7 fold responses respectively.

HT-1376 cell line = experiment: Control cell line HT-1376 processed with the ascites sample, EGF-induced p-Erk; assay type: cell-based; conditions: HT-1376 control cell line
Protocol: as §3
The cell line control has what appears to be a lower basal p-ERK level, however one must be careful when comparing absolute fluorescent levels between different cell types (ie, cell line vs primary cells) due to differences in autofluoresence and degree of non-specific antibody binding. […] The DNA index is near 1.0 indicating these cells are not aneuploid.

pleural effusion cells = experiment: Culture of pleural effusion cells (MCSF-04) in presence and absence of EGF; assay type: cell-based, human
Protocol: as §1
Cells in culture: 1 million cells were plated in two wells of a 24-well plate in the presence and absence of EGF. The cells visually appeared healthy after 48 hrs in culture with some cells with elongated appearance like an epithelial cells. Some very large round cells were also observed. At day 8, both cultures had adherent and non-adherent cells. Counts were performed. The well without EGF contained 400,000 viable, non-adherent cells while the well in the presence +EGF contained 800,000. The patient specimen contained 15.87% epithelial cells that were mostly non-apoptotic. The DNA index is 1.37 indicating the epithelial cells are aneuploid.

CS(=O)(=O)N1CCN(Cc2cc3nc(-c4cccc5[nH]ncc45)nc(N4CCOCC4)c3s2)CC1 [GDC-0941]
effect on EGF-induced p-AKT signaling ([1]; MCSF-04 epithelial cells, EGF added after incubation with GDC-0941): attenuated; also recorded: Attenuation | effect on basal p-AKT signaling ([1]; MCSF-04 epithelial cells, GDC-0941 incubation): attenuated | effect on EGF-induced signaling in the positive samples ([2]; each of the 4 positive ascites or pleural effusion cases): inhibited | effect on basal (unstim) p-AKT level ([3]; MCSF-02, 200 nM GDC-0941): inability of the PI3K inhibitor to decrease p-AKT beyond the basal | effect on EGF-induced p-AKT signaling ([3]; MCSF-02, 1 hour pre-incubation with 200 nM GDC-0941): attenuated | basal p-ERK, unstimulated condition versus GDC containing sample ([3]; MCSF-02 epithelial cells): higher than the GDC containing sample | effect on EGF-induced p-Akt signaling ([4]; MCSF-015 epithelial cells): Attenuation; also recorded: attenuated | effect on basal p-Akt signaling ([4]; MCSF-015 epithelial cells): attenuated | effect on p-ERK signaling ([4]; MCSF-015 epithelial cells): but not the p-ERK signaling | prevention of EGF-induced p-AKT and p-ERK signaling ([5]; BC samples, GDC-0941 200 nM added 1 hr prior to EGF): preventable | effect on EGF-induced p-Akt signaling ([6]; MCSF-06 epithelial cells): Attenuation; also recorded: attenuated | effect on basal p-Akt signaling ([6]; MCSF-06 epithelial cells): attenuated | effect on p-ERK signaling ([6]; MCSF-06 epithelial cells): but not the p-ERK signaling

CCOC(=O)[C@@H](N)CCC(=O)N[C@@H](CSCc1ccccc1)C(=O)N[C@@H](C(=O)OCC)c1ccccc1 [TLK-199]
hematologic response in trial (MDS patients): hematologic improvement in all three hematopoietic lineages | toxicities in trial (MDS patients): limited to infusion reactions, nausea, chills and bone pain

EGF: Epidermal growth factor, growth factor used as modulator to induce p-AKT and p-ERK
EGF-induced pAKT response (HT-1376 cells): 9.4 fold | EGF-induced pERK response (HT-1376 cells): 3.7 fold | EGF induction of p-AKT and p-ERK in epithelial cells ([1]; MCSF-04 pleural effusion, EGF 5 min., 37° C.): strong | samples in which epithelial cells with inducible EGF signaling were identified ([2]; ascites or pleural effusion samples): ⅘ | EGF induction of p-AKT in epithelial cells ([3]; MCSF-02 ascites): strong | EGF induction of p-Erk in epithelial cells ([3]; MCSF-02 ascites): no significant increase above baseline; also recorded: no p-Erk induction above baseline was detected | increase in p-AKT levels after EGF stimulation ([3]; MCSF-02 ascites epithelial cells, 10 mins. EGF stimulation): 9 fold | EGF induction, above basal signaling, of p-Akt and p-ERK in epithelial cells ([4]; MCSF-015, EGF 5 min., 37° C.): strong | EGF induction of p-Erk in control cell line (HT-1376 cell line): observed | EGF-induced p-AKT and p-ERK signaling, increase over baseline ([5]; 3/10 BC evaluable bladder wash samples, 5 minute stimulation with EGF): 2-3 fold | EGF-induced signaling in NC specimens ([5]; non-cancer (NC) bladder wash specimens, 5 minute stimulation with EGF): no EGF-induced signaling was observed | viable, non-adherent cells per well at day 8 (pleural effusion cells; 1 million cells plated, 24-well plate, presence of EGF (well without EGF 400,000)): 800,000 cells | proliferation in culture (pleural effusion cells; MCSF-04 cells, EGF induced condition): Proliferation was observed | EGF induction, above basal signaling, of p-Akt and p-ERK in epithelial cells ([6]; MCSF-06, EGF 5 min., 37° C.): strong
